{"source": "patent US9809582B2", "about": "“Aminoester derivatives” (CHIESI FARMACEUTICI S.p.A., priority 2015, dated 2017)", "key": {"[1]": {"target": "Human M3 receptor (Homo sapiens (Human), UniProt P20309)", "sequence (P20309 whole entry)": "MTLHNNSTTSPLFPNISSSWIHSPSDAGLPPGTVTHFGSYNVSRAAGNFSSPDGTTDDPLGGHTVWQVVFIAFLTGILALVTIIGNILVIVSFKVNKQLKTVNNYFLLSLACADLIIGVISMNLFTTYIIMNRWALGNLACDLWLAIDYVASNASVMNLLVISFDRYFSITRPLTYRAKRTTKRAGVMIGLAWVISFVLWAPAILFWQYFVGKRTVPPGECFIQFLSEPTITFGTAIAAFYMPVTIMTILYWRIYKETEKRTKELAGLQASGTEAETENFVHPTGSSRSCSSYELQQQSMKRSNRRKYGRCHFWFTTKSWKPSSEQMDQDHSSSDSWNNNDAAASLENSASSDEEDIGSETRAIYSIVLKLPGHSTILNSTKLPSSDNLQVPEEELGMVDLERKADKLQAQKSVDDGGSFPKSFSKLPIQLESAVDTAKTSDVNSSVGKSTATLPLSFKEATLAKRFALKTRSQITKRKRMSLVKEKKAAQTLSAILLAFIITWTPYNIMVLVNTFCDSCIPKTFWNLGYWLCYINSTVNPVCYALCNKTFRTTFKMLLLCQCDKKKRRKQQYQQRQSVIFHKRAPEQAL", "test": "M3 receptor radioligand binding assay", "method": "M3 Receptor Radioligand Binding Assay:\nThe assay is carried out in 96-well polypropylene plates in a volume of 250 μl. […] The final assay concentration of DMSO is 0.5% (v/v). The plates are sealed and incubated for 2 h at room temperature on an orbital shaker (slow speed). Membranes are harvested onto 96-well unifilter GF/C filter plates pre-treated with 0.5% polyethyleneimine (v/v), using a filter manifold, washed four times with […] of assay buffer. The plates are dried before addition of 50 μl of microscint-0, sealed then read in a Trilux Microbeta scintillation counter. IC50 values are determined from competition curves using a non-linear curve fitting program. Ki values are calculated from IC50 values by the Cheng and Prusoff equation."}, "[2]": {"target": "Human recombinant PDE4B2 (Homo sapiens (Human), UniProt Q07343)", "sequence (Q07343 other isoform, or with tags, fused parts or gaps)": "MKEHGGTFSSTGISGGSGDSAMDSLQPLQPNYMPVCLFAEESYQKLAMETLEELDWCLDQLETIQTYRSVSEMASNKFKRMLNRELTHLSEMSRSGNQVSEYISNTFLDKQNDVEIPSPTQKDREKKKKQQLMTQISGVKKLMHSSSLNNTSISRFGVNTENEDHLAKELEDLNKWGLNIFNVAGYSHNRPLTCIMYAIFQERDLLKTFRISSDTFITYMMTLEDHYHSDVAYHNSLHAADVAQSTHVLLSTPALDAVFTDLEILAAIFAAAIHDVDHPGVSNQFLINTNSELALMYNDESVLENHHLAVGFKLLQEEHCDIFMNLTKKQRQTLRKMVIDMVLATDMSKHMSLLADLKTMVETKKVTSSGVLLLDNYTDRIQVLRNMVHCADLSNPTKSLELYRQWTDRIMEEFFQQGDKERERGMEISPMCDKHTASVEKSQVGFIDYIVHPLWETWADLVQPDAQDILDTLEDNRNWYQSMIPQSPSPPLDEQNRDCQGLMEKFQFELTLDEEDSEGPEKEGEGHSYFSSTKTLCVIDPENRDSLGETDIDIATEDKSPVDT", "test": "PDE4B2 HTRF assay", "type": "biochemical", "method": "PDE4B2 activity is detected using the LANCE Ultra cAMP homogeneous time resolved fluorescence resonance energy transfer (TR-FRET) assay from Perkin Elmer. The assay is based on the competition between the europium (Eu) chelate-labeled cAMP tracer and sample cAMP for binding sites on cAMP-specific monoclonal antibodies (mAb) labelled with the ULight™ dye. The assay is carried out in 384-well low volume plates in a volume of 10 μl. Human recombinant PDE4B2 (80 pM) is incubated for 2 h with 3 nM cAMP in buffer containing 1×HBSS, 5 mM HEPES, 3 mM MgCl2, 0.1% BSA, pH 7.4 with or without test compounds. The enzymatic reactions are efficiently stopped by the addition of 500 μM IBMX present in the combined Stop/Detection buffer containing europium (Eu) chelate-labeled cAMP tracer and cAMP-specific monoclonal antibodies (mAb) labelled with the ULight™ dye. […] IC50 values are determined from competition curves using a non-linear curve fitting program."}, "[3]": {"details": "M3 Receptor radioligand binding assay, read-out: M3 IC50 Activity"}, "[4]": {"details": "PDE4B2 HTRF assay, read-out: PDE4B2 IC50 Activity"}}, "note": "Where two headings read alike, the source gives them in different places."}
{"smiles": "COc1ccc([C@H](Cc2c(Cl)c[n+]([O-])cc2Cl)OC(=O)c2ccc(CNCC(C)(C(=O)OC3CCN(C)CC3)c3ccccc3)s2)cc1OC", "note": "(stereo partly drawn) [Example 8, [(1S)-2-(3,5-dichloro-1-oxido-pyridin-1-ium-4-yl)-1-(3,4-dimethoxyphenyl)ethyl] 5-[[[2-methyl-3-[(1-methyl-4-piperidyl)oxy]-3-oxo-2-phenyl-propyl]amino]methyl]thiophene-2-carboxylate]", "values": [{"measurement": "IC50", "setting": "[1]; [3]", "value": "0.01 to 0.1", "unit": "µM"}]}
{"smiles": "COc1ccc([C@H](Cc2c(Cl)c[n+]([O-])cc2Cl)OC(=O)c2ccc(CNCC(C)(C(=O)OCCN(C)C)c3ccccc3)s2)cc1OC", "note": "(stereo partly drawn) [Example 29, [(1S)-2-(3,5-dichloro-1-oxido-pyridin-1-ium-4-yl)-1-(3,4-dimethoxyphenyl)ethyl] 5-[[[3-(2-dimethylaminoethyloxy)-2-methyl-3-oxo-2-phenyl-propyl]amino]methyl]thiophene-2-carboxylate]", "values": [{"measurement": "IC50", "setting": "[1]; [3]", "value": "0.01 to 0.1", "unit": "µM"}, {"measurement": "IC50", "setting": "[2]; [4]", "value": "0.001 to 0.01", "unit": "µM"}]}
{"smiles": "COc1ccc([C@H](Cc2c(Cl)c[n+]([O-])cc2Cl)OC(=O)c2ccc(CNC3CC(C(=O)OC4CCN(C)CC4)(c4ccccc4)C3)s2)cc1OC", "note": "(stereo partly drawn) [Example 32, [(1S)-2-(3,5-dichloro-1-oxido-pyridin-1-ium-4-yl)-1-(3,4-dimethoxyphenyl)ethyl] 5-[[[3-[(1-methyl-4-piperidyl)oxycarbonyl]-3-phenyl-cyclobutyl]amino]methyl]-thiophene-2-carboxylate]", "values": [{"measurement": "IC50", "setting": "[1]; [3]", "value": "0.01 to 0.1", "unit": "µM"}, {"measurement": "IC50", "setting": "[2]; [4]", "value": "< 0.001", "unit": "µM"}]}
{"smiles": "COc1ccc([C@H](Cc2c(Cl)c[n+]([O-])cc2Cl)OC(=O)c2ccc(CNCC(C(=O)OCCN(C)C)c3ccccc3)s2)cc1OC", "note": "(stereo partly drawn) [Example 22, [(1S)-2-(3,5-dichloro-1-oxido-pyridin-1-ium-4-yl)-1-(3,4-dimethoxyphenyl)ethyl] 5-[[[3-(2-dimethylaminoethyloxy)-3-oxo-2-phenyl-propyl]amino]methyl]thiophene-2-carboxylate]", "values": [{"measurement": "IC50", "setting": "[1]; [3]", "value": "0.001 to 0.01", "unit": "µM"}, {"measurement": "IC50", "setting": "[2]; [4]", "value": "0.001 to 0.01", "unit": "µM"}]}
{"smiles": "COc1ccc([C@H](Cc2c(Cl)c[n+]([O-])cc2Cl)OC(=O)c2ccc(CNC3CC(C(=O)O[C@H]4CN5CCC4CC5)(c4ccccc4)C3)s2)cc1OC", "note": "(stereo partly drawn) [Example 33, [(1S)-2-(3,5-dichloro-1-oxido-pyridin-1-ium-4-yl)-1-(3,4-dimethoxyphenyl)ethyl] 5-[[[3-phenyl-3-[(3R)-quinuclidin-3-yl]oxycarbonyl-cyclobutyl]amino]methyl]thiophene-2-carboxylate]", "values": [{"measurement": "IC50", "setting": "[1]; M3 IC50 Activity", "value": "0.001 to 0.01", "unit": "µM"}, {"measurement": "IC50", "setting": "[2]", "value": "0.001 to 0.01", "unit": "µM"}]}
{"smiles": "COc1ccc([C@H](Cc2c(Cl)c[n+]([O-])cc2Cl)OC(=O)c2ccc(CNCC(C)(C(=O)OC3CCN(C)CC3)c3ccccc3)s2)cc1OC", "note": "(stereo partly drawn) [Example 25, [(1S)-2-(3,5-dichloro-1-oxido-pyridin-1-ium-4-yl)-1-(3,4-dimethoxyphenyl)ethyl] 5-[[[2-methyl-3-[(1-methyl-4-piperidyl)oxy]-3-oxo-2-phenyl-propyl]amino]methyl]thiophene-2-carboxylate]", "values": [{"measurement": "IC50", "setting": "[1]; [3]", "value": "0.01 to 0.1", "unit": "µM"}, {"measurement": "IC50", "setting": "[2]; [4]", "value": "0.001 to 0.01", "unit": "µM"}]}
{"smiles": "COc1ccc([C@H](Cc2c(Cl)c[n+]([O-])cc2Cl)OC(=O)c2ccc(CNC3CC(C(=O)O[C@H]4CN5CCC4CC5)(c4ccccc4)C3)s2)cc1OC", "note": "(stereo partly drawn) [Example 37, [(1S)-2-(3,5-dichloro-1-oxido-pyridin-1-ium-4-yl)-1-(3,4-dimethoxyphenyl)ethyl] 5-[[[3-phenyl-3-[(3R)-quinuclidin-3-yl]oxycarbonyl-cyclobutyl]amino]methyl]thiophene-2-carboxylate]", "values": [{"measurement": "IC50", "setting": "[1]; read-out: M3 IC50 Activity", "value": "0.001 to 0.01", "unit": "µM"}, {"measurement": "IC50", "setting": "[2]; read-out: PDE4B2 IC50 Activity", "value": "0.001 to 0.01", "unit": "µM"}]}
{"smiles": "COc1ccc([C@H](Cc2c(Cl)c[n+]([O-])cc2Cl)OC(=O)c2ccc(CN(C)CC(C)(C(=O)O[C@H]3CN4CCC3CC4)c3ccccc3)s2)cc1OC", "note": "(stereo partly drawn) [Example 26, [(1S)-2-(3,5-dichloro-1-oxido-pyridin-1-ium-4-yl)-1-(3,4-dimethoxyphenyl)ethyl] 5-[[methyl-[2-methyl-3-oxo-2-phenyl-3-[(3R)-quinuclidin-3-yl]oxy-propyl]amino]methyl]thiophene-2-carboxylate]", "values": [{"measurement": "IC50", "setting": "[1]; read-out: M3 IC50 Activity", "value": "0.001 to 0.01", "unit": "µM"}, {"measurement": "IC50", "setting": "[2]; read-out: PDE4B2 IC50 Activity", "value": "0.001 to 0.01", "unit": "µM"}]}
{"smiles": "COc1ccc([C@H](Cc2c(Cl)c[n+]([O-])cc2Cl)OC(=O)c2ccc(CNCC(C(=O)O[C@H]3CN4CCC3CC4)c3ccccc3)s2)cc1OC", "note": "(stereo partly drawn) [Example 1, [(1S)-2-(3,5-dichloro-1-oxido-pyridin-1-ium-4-yl)-1-(3,4-dimethoxyphenyl)ethyl] 5-[[[3-oxo-2-phenyl-3-[(3R)-quinuclidin-3-yl]oxy-propyl]amino]methyl]thiophene-2-carboxylate]", "values": [{"measurement": "IC50", "setting": "[1]; M3 IC50 Activity", "value": "0.001 to 0.01", "unit": "µM"}, {"measurement": "IC50", "setting": "[2]", "value": "0.001 to 0.01", "unit": "µM"}]}
{"smiles": "COc1ccc([C@H](Cc2c(Cl)c[n+]([O-])cc2Cl)OC(=O)c2ccc(CNCC(C(=O)O[C@@H]3CCN(C)C3)c3ccccc3)s2)cc1OC", "note": "(stereo partly drawn) [Example 4, [(1S)-2-(3,5-dichloro-1-oxido-pyridin-1-ium-4-yl)-1-(3,4-dimethoxyphenyl)ethyl]-5-[[[3-[(3R)-1-methylpyrrolidin-3-yl]oxy-3-oxo-2-phenyl-propyl]amino]methyl]thiophene-2-carboxylate]", "values": [{"measurement": "IC50", "setting": "[1]; [3]", "value": "0.01 to 0.1", "unit": "µM"}, {"measurement": "IC50", "setting": "[2]; [4]", "value": "0.001 to 0.01", "unit": "µM"}]}
{"smiles": "COc1ccc([C@H](Cc2c(Cl)c[n+]([O-])cc2Cl)OC(=O)c2ccc(CN(C)CC(C)(C(=O)O[C@H]3CN4CCC3CC4)c3ccccc3)s2)cc1OC", "note": "(stereo partly drawn) [Example 27, [(1S)-2-(3,5-dichloro-1-oxido-pyridin-1-ium-4-yl)-1-(3,4-dimethoxyphenyl)ethyl] 5-[[methyl-[2-methyl-3-oxo-2-phenyl-3-[(3R)-quinuclidin-3-yl]oxy-propyl]amino]methyl]thiophene-2-carboxylate]", "values": [{"measurement": "IC50", "setting": "[2]; read-out: PDE4B2 IC50 Activity", "value": "0.001 to 0.01", "unit": "µM"}]}
{"smiles": "COc1ccc([C@H](Cc2c(Cl)c[n+]([O-])cc2Cl)OC(=O)c2ccc(CNCC(C)(C(=O)OCCN(C)C)c3ccccc3)s2)cc1OC", "note": "(single isomer, unassigned) [Example 28]", "values": [{"measurement": "IC50", "setting": "[1]; [3]", "value": "0.01 to 0.1", "unit": "µM"}]}
{"smiles": "COc1ccc([C@H](Cc2c(Cl)c[n+]([O-])cc2Cl)OC(=O)c2ccc(CNCC(C)(C(=O)O[C@H]3CN4CCC3CC4)c3ccccc3)s2)cc1OC", "note": "(stereo partly drawn) [Example 7, [(1S)-2-(3,5-dichloro-1-oxido-pyridin-1-ium-4-yl)-1-(3,4-dimethoxyphenyl)ethyl] 5-[[[2-methyl-3-oxo-2-phenyl-3-[(3R)-quinuclidin-3-yl]oxy-propyl]amino]methyl]thiophene-2-carboxylate]", "values": [{"measurement": "IC50", "setting": "[2]; read-out: PDE4B2 IC50 Activity", "value": "0.001 to 0.01", "unit": "µM"}]}
{"smiles": "COc1ccc([C@H](Cc2c(Cl)c[n+]([O-])cc2Cl)OC(=O)c2ccc(CNCC(C)(C(=O)O[C@H]3CN4CCC3CC4)c3ccccc3)s2)cc1OC", "note": "(stereo partly drawn) [Example 30, [(1S)-2-(3,5-dichloro-1-oxido-pyridin-1-ium-4-yl)-1-(3,4-dimethoxyphenyl)ethyl] 5-[[[2-methyl-3-oxo-2-phenyl-3-[(3R)-quinuclidin-3-yl]oxy-propyl]amino]methyl]thiophene-2-carboxylate]", "values": [{"measurement": "IC50", "setting": "[1]; M3 IC50 Activity", "value": "0.001 to 0.01", "unit": "µM"}]}
{"smiles": "COc1ccc([C@H](Cc2c(Cl)c[n+]([O-])cc2Cl)OC(=O)c2ccc(CNCC(C)(C(=O)OCCN(C)C)c3ccccc3)s2)cc1OC", "note": "(stereo partly drawn) [Example 9, [(1S)-2-(3,5-dichloro-1-oxido-pyridin-1-ium-4-yl)-1-(3,4-dimethoxyphenyl)ethyl] 5-[[[3-(2-dimethylaminoethyloxy)-2-methyl-3-oxo-2-phenyl-propyl]amino]methyl]thiophene-2-carboxylate]", "values": [{"measurement": "IC50", "setting": "[1]; [3]", "value": "0.01 to 0.1", "unit": "µM"}]}
{"smiles": "COc1ccc([C@H](Cc2c(Cl)c[n+]([O-])cc2Cl)OC(=O)c2ccc(CN3CC(C(=O)O[C@H]4CN5CCC4CC5)(c4ccccc4)C3)s2)cc1OC", "note": "[Example 15, [(3R)-quinuclidin-3-yl]-1-[[5-[(1S)-2-(3,5-dichloro-1-oxido-pyridin-1-ium-4-yl)-1-(3,4-dimethoxyphenyl)ethoxy]carbonyl-2-thienyl]methyl]-3-phenyl-azetidine-3-carboxylate]", "values": [{"measurement": "IC50", "setting": "[2]", "value": "0.001 to 0.01", "unit": "µM"}]}
{"smiles": "COc1ccc([C@H](Cc2c(Cl)c[n+]([O-])cc2Cl)OC(=O)c2ccc(CNCC(C)(C(=O)OC3CCN(C)CC3)c3ccccc3)s2)cc1OC", "note": "(stereo partly drawn) [Example 24, [(1S)-2-(3,5-dichloro-1-oxido-pyridin-1-ium-4-yl)-1-(3,4-dimethoxyphenyl)ethyl] 5-[[[2-methyl-3-[(1-methyl-4-piperidyl)oxy]-3-oxo-2-phenyl-propyl]amino]methyl]thiophene-2-carboxylate]", "values": [{"measurement": "IC50", "setting": "[1]; [3]", "value": "0.01 to 0.1", "unit": "µM"}]}
{"smiles": "COc1ccc([C@H](Cc2c(Cl)c[n+]([O-])cc2Cl)OC(=O)c2ccc(CNC3CC(C(=O)O[C@H]4CN5CCC4CC5)(c4ccccc4)C3)s2)cc1OC", "note": "(stereo partly drawn) [Example 36, [(1S)-2-(3,5-dichloro-1-oxido-pyridin-1-ium-4-yl)-1-(3,4-dimethoxyphenyl)ethyl] 5-[[[3-phenyl-3-[(3R)-quinuclidin-3-yl]oxycarbonyl-cyclobutyl]amino]methyl]thiophene-2-carboxylate]", "values": [{"measurement": "IC50", "setting": "[2]; read-out: PDE4B2 IC50 Activity", "value": "0.001 to 0.01", "unit": "µM"}]}
{"smiles": "COc1ccc([C@H](Cc2c(Cl)c[n+]([O-])cc2Cl)OC(=O)c2ccc(CNCC(C(=O)OC3CCN(C)CC3)c3ccccc3)s2)cc1OC", "note": "(stereo partly drawn) [Example 5, [(1S)-2-(3,5-dichloro-1-oxido-pyridin-1-ium-4-yl)-1-(3,4-dimethoxyphenyl)ethyl] 5-[[[3-[(1-methyl-4-piperidyl)oxy]-3-oxo-2-phenyl-propyl]amino]methyl]thiophene-2-carboxylate]", "values": [{"measurement": "IC50", "setting": "[1]; [3]", "value": "0.001 to 0.01", "unit": "µM"}]}
